Patent publication EP0366226A1, “Stabilized thiocarbonate solutions and the use thereof for controlling soil pests” (UNION OIL COMPANY OF CALIFORNIA, priority 1988, dated 1990)
Counter-ions that a name gives are not always drawn.

How the values were obtained:
[1] = Accelerated ageing at 84° C.: effect of additives on thiocarbonate half-life; assay type: physicochemical; conditions: parentheses = decrease
Procedure: The effect of elemental sulfur additions and the addition of free radical scavengers on the half-life of thiocarbonate solutions was determined by an accelerated adding procedure in which the compositions were stored at 84° C. in order to accelerate decomposition and thereby facilitate data acquisition. Incremental additions of 1.0, 3.0 and 5.0 weight percent elemental sulfur were made, and these corresponds to 0.16, 0.48 and 0.86 equivalents of sulfur per equivalent of ammonium sulfide, respectively. Since the solutions contained 1 equivalent of ammonium sulfide per equivalent of ammonium tetrathiocarbonate (based on the weight percent values for those components given above), the amount of ammonium polysulfide in the solution correspond, nominally, to 0.16, 0.48 and 0.86 equivalents polysulfide per equivalent of thiocarbonate for the 3 sulfur concentrations employed.

[2] = Degradation time in sandy loam soil at different moisture (CS2 in air space by gas chromatography); assay type: physicochemical
Procedure: A sandy loam soil was placed in 1-liter glass bottles, fitted with stoppers having fluorocarbon liners and silicone rubber septa, to give a soil depth of about 4 cm. Water was added to the soil, in quantities to obtain 50 and 100 percent soil saturation. Thiocarbonate solution or carbon disulfide was then injected near the bottom of the soil layer, the bottles were promptly sealed, and the air space in the bottles was sampled at intervals with a syringe, for gas chromatographic analysis of CS₂. The results are summarized below, wherein degradation time is the number of hours required to achieve the maximum CS₂ concentration in the air space.

[3] = Solvency of aqueous thiocarbonate solutions for urea; assay type: physicochemical; conditions: 46 percent solution
Procedure: Urea was added to a 41.5 percent, by weight, aqueous solution of calcium tetrathiocarbonate until the solubility limit of urea was reached. At room temperature, the solution dissolved 122 percent by weight urea. The resulting solution was 55 percent urea, 18.6 percent calcium tetrathiocarbonate, and 26.3 percent water, by weight. Thus, the solvency of the aqueous solution of calcium tetrathiocarbonate for urea was at least as great as that of water alone. Similarly, a 46 percent solution of potassium tetrathiocarbonate dissolved 100 percent of its own weight of urea. Similar results were obtained with other tri- and tetrathiocarbonates of alkali metal and alkaline earth metals.

[4] = test system: Sclerotium rolfsii; assay: Fungicidal test, radial growth of mycelia from treated agar blocks; assay type: cell-based
Procedure: (§1) Thiocarbonate solutions were used in a test of their fungicidal properties. Cultures of four plant pathogenic fungi were grown upon potato dextrose agar at room temperature, in diffuse natural lighting. After one week, square blocks having 2 millimeter sides were cut from the edges of actively drawings mycelia spots on the agar.
(§2) The blocks were immersed in sterile deionized water, as a control, or in dilutions of thiocarbonate solutions using the sterile water, in a closed container. Subsequently, the blocks were removed and placed upon agar in clean plates, and mycelia were allowed to grow for one week.
(§3) Radial growth of mycelia colonies was measured for each of the six to eight replicate plates used for a particular fungus, and average colony radius was calculated. Percent control is defined by the following equation: […]
(§4) Concentrations given for solutions used to treat the agar blocks are expressed in grams of thiocarbonate solution per liter of diluted solution.

[5] = test system: Fusarium oxysporum; assay: as above; assay type: cell-based
Procedure: as §1, §2, §3, §4

[6] = test system: Phytophthora cinnamomi; assay: as above; assay type: cell-based
Procedure: as §1, §2, §3, §4

[7] = test system: Verticillium dahliae; assay: as above; assay type: cell-based
Procedure: as §1, §2, §3, §4

[8] = CS2 in equilibrium vapor phase over concentrated thiocarbonate solutions (gas chromatography); assay type: physicochemical; conditions: for equilibrium CS₂ concentration in the vapor phase: 24° C., stoichiometric aqueous solution, 12.9 weight percent equivalent carbon disulfide
Procedure: Accordingly, the amount of base, sulfide and/or polysulfide employed should be sufficient to reduce the carbon disulfide partial pressure of the solution by the desired amount, and the amount of additive required to achieve that effect can be easily determined by adding different, known quantities of base, sulfide and/or polysulfide to the desired thiocarbonate solution, confining the vapor space over the solution at 24° C. for a sufficient period of time, e.g. about 24 hours, and analyzing, the vapor phase by gas chromotography for carbon disulfide. Lower additive concentrations will result in somewhat higher CS₂ equilibrium concentrations (e.g. higher CS₂ partial pressures), and higher additive concentrations will result in lower CS₂ partial pressures.
A series of solutions containing 12.9 weight percent equivalent carbon disulfide as sodium tri- or tetrathiocarbonate were prepared by combining sodium hydroxide, deionized water, sulfur (in the case of tetrathiocarbonate only), hydrogen sulfide and carbon disulfide. In the stoichiometric solutions, the reactants were combined in proportions sufficient to provide sodium tri- or tetrathiocarbonate solutions containing 12.9 weight percent equivalent carbon disulfide without any excess reactant. In addition to the stoichiometric solutions, solutions were prepared with systematically increasing sodium hydroxide concentrations at constant equivalent carbon disulfide concentrations, so that excess base was provided in those solutions in the proportions given in the following table.
The respective solutions were prepared by combining the appropriate amounts of base, water, and elemental sulfur (when used to form the tetrathiocarbonate), in 250 ml. bottles. The contents were then tared, and the appropriate amounts of hydrogen sulfide gas were bubbled in with cooling as necessary to form 100 grams of each of the test solutions. The bottles were then capped with Mininert valves, and the appropriate amount of carbon disulfide was added by injecting with a syringe. All sample bottles were shaken overnight to complete the reaction and were then allowed to equilibrate 3 days at 24° C., and the vapor phase was then sampled and analyzed for carbon disulfide by gas chromotography. The results are reported in the following table and show the effects of increasing base concentrations on carbon disulfide partial pressure (carbon disulfide content of the equilibrium vapor phase). Hydrogen sulfide was not detected in the vapor phase of these formulations at an H₂S detection limit of 100 ppmv.
The operation described in Example 19 was repeated with the exception that sodium sulfide (Na₂S) was substituted for excess base. The sodium sulfide was introduced by forming solutions containing incrementally greater amounts of sodium hydroxide and then adding additional amounts of hydrogen sulfide equivalent to the amount of excess sodium hydroxide to convert the excess sodium hydroxide to sodium sulfide in situ.

[9] = additive Concentration 0.5 Wt. %
[10] = additive Concentration 1.0 Wt. %
[11] = additive Concentration 2.0 Wt. %
[12] = 1 g/l, listed as K₂CS₄ (9.43%CS₂)
[13] = 10 g/l, listed as K₂CS₄ (9.43%CS₂)
[14] = Base 0.00 equivalent per equivalent of CS2, sodium salt, 12.9 weight percent equivalent CS2
[15] = Base 0.02 equivalent per equivalent of CS2
[16] = Base 0.04 equivalent per equivalent of CS2
[17] = Base 0.08 equivalent per equivalent of CS2
[18] = Base 0.12 equivalent per equivalent of CS2
[19] = Sulfide 0.02 equivalent per equivalent of CS2
[20] = Sulfide 0.04 equivalent per equivalent of CS2
[21] = Sulfide 0.08 equivalent per equivalent of CS2
[22] = Sulfide 0.12 equivalent per equivalent of CS2
[23] = Sulfide (Na2S) 0.00 equivalent per equivalent of CS2, sodium salt, 12.9 weight percent equivalent CS2
[24] = 10 g/l, listed as Na₂CS₄ (10.6%CS₂)
[25] = 1 g/l, listed as Na₂CS₄ (10.6%CS₂)
[26] = additive Concentration 5.0 Wt. %

Molecule: O=C1O[C@H]([C@@H](O)CO)C(O)=C1O [Ascorbic Acid]
- Increase (Decrease) in Half-Life, % [1, 9]: 0%
- Increase (Decrease) in Half-Life, % [1, 10]: 0%
- Increase (Decrease) in Half-Life, % [1, 11]: 0%

Molecule: O=C(O)CC(O)(CC(=O)O)C(=O)O [Citric Acid, Na Salt]
- Increase (Decrease) in Half-Life, % [1, 9]: 0%
- Increase (Decrease) in Half-Life, % [1, 10]: 0%
- Increase (Decrease) in Half-Life, % [1, 11]: 0%

Molecule: Oc1ccc(O)cc1 [Hydroquinone]
- Increase (Decrease) in Half-Life, % [1, 9]: 0%

Molecule: S=C(S)SS [K₂CS₄, potassium tetrathiocarbonate]
- Degradation Time ([2]; Soil Moisture 50 % of Saturation): 5 h
- Degradation Time ([2]; Soil Moisture 100 % of Saturation): 48 h
- urea dissolved by the solution [3]: 100% of its own weight
- Percent Control Sclerotium rolfsii [4, 12]: 42%
- Percent Control Sclerotium rolfsii [4, 13]: 8%
- Percent Control Fusarium oxysporum [5, 12]: 8%
- Percent Control Fusarium oxysporum [5, 13]: 10%
- Percent Control Fusarium oxysporum ([5]; 100 g/l thiocarbonate solution per liter of diluted solution, listed as K₂CS₄ (9.43%CS₂)): 76%
- Percent Control Phytophthora cinnamomi [6, 12]: 56%
- Percent Control Phytophthora cinnamomi [6, 13]: 68%
- Percent Control Verticillium dahliae [7, 12]: 27%
- Percent Control Verticillium dahliae [7, 13]: 15%

Molecule: S=C(S)SS [Na₂CS₄, sodium tetrathiocarbonate]
- equilibrium CS₂ concentration in the vapor phase [8]: approximately 14 volume percent
- CS₂ in Equilibrium Vapor at 24° C., Vol. % [8, 14]: 14.4 Vol. %
- CS₂ in Equilibrium Vapor at 24° C., Vol. % [8, 15]: 0.87 Vol. %
- CS₂ in Equilibrium Vapor at 24° C., Vol. % [8, 16]: 0.47 Vol. %
- CS₂ in Equilibrium Vapor at 24° C., Vol. % [8, 17]: 0.29 Vol. %
- CS₂ in Equilibrium Vapor at 24° C., Vol. % [8, 18]: 0.27 Vol. %
- CS₂ in Equilibrium Vapor at 24° C., Vol. % [8, 19]: 6.60 Vol. %
- CS₂ in Equilibrium Vapor at 24° C., Vol. % [8, 20]: 0.74 Vol. %
- CS₂ in Equilibrium Vapor at 24° C., Vol. % [8, 21]: 0.12 Vol. %
- CS₂ in Equilibrium Vapor at 24° C., Vol. % [8, 22]: 0.13 Vol. %
- CS₂ in Equilibrium Vapor at 24° C., Vol. % [8, 23]: 14.4 Vol. %
- Percent Control Sclerotium rolfsii [4, 24]: 100%
- Percent Control Fusarium oxysporum [5, 25]: 4%
- Percent Control Fusarium oxysporum [5, 24]: 6%
- Percent Control Fusarium oxysporum ([5]; 100 g/l thiocarbonate solution per liter of diluted solution, listed as Na₂CS₄ (10.6%CS₂)): 100%
- Percent Control Phytophthora cinnamomi [6, 24]: 37%
- Percent Control Verticillium dahliae [7, 25]: 23%

Molecule: CCN(CC)CC [Triethylamine]
- Increase (Decrease) in Half-Life, % [1, 10]: 0%

Molecule: S=C(S)S [Trithiocarbonate, sodium trithiocarbonate]
- equilibrium CS₂ concentration in the vapor phase [8]: 27 volume percent
- CS₂ in Equilibrium Vapor at 24° C., Vol. % [8, 14]: 27.5 Vol. %
- CS₂ in Equilibrium Vapor at 24° C., Vol. % [8, 15]: 34.2 Vol. %
- CS₂ in Equilibrium Vapor at 24° C., Vol. % [8, 16]: 30.0 Vol. %
- CS₂ in Equilibrium Vapor at 24° C., Vol. % [8, 17]: 0.67 Vol. %
- CS₂ in Equilibrium Vapor at 24° C., Vol. % [8, 18]: 0.16 Vol. %
- CS₂ in Equilibrium Vapor at 24° C., Vol. % [8, 19]: 45.9 Vol. %
- CS₂ in Equilibrium Vapor at 24° C., Vol. % [8, 20]: 1.39 Vol. %
- CS₂ in Equilibrium Vapor at 24° C., Vol. % [8, 21]: 0.57 Vol. %
- CS₂ in Equilibrium Vapor at 24° C., Vol. % [8, 22]: 0.42 Vol. %
- CS₂ in Equilibrium Vapor at 24° C., Vol. % [8, 23]: 27.5 Vol. %

Molecule: NC(N)=O [Urea]
- Increase (Decrease) in Half-Life, % [1, 26]: 0%

Molecule: COc1ccc(O)cc1 [p-Methoxyphenol]
- Increase (Decrease) in Half-Life, % [1, 9]: 0%
- Increase (Decrease) in Half-Life, % [1, 10]: 0%
- Increase (Decrease) in Half-Life, % [1, 11]: 0%

Molecule: Elemental Sulfur
- Increase (Decrease) in Half-Life, % [1, 10]: 0%
- Increase (Decrease) in Half-Life, % ([1]; additive Concentration 3.0 Wt. %): 16%
- Increase (Decrease) in Half-Life, % [1, 26]: 22%
